In brackets after ≈: the same amount, converted by molar mass.
Key:
Type in all cases: functional
Candida albicans = assay: Antifungal activity against Candida albicans after 24 hrs by serial dilution method
Cryptococcus neoformans = assay: Antifungal activity against Cryptococcus neoformans after 72 hrs by serial dilution method
Aspergillus fumigatus = assay: Antifungal activity against Aspergillus fumigatus after 7 days by serial dilution method; settings: 168 h
Candida tropicalis = assay: Antifungal activity against Candida tropicalis after 24 hrs by serial dilution method
Pichia kudriavzevii = assay: Antifungal activity against Candida krusei after 24 hrs by serial dilution method
Candida parapsilosis = assay: Antifungal activity against Candida parapsilosis after 24 hrs by serial dilution method; settings: Lodderomyces parapsilosis
Trichophyton rubrum = assay: Antifungal activity against Trichophyton rubrum after 7 days by serial dilution method; settings: 168 h

SMILES: OC(CN1CCC(=NOCc2ccc(C(F)(F)F)cc2)CC1)(Cn1cncn1)c1ccc(F)cc1F (racemic)
- MIC80 (Candida albicans): 16 µg/mL (≈ 31.4 µM)
- MIC80 (Cryptococcus neoformans): 16 µg/mL (≈ 31.4 µM)
- MIC80 (Aspergillus fumigatus): 64 µg/mL (≈ 126 µM)
- MIC80 (Candida tropicalis): 64 µg/mL (≈ 126 µM)
- MIC80 (Pichia kudriavzevii): 64 µg/mL (≈ 126 µM)
- MIC80 (Candida parapsilosis): 64 µg/mL (≈ 126 µM)
- MIC80 (Trichophyton rubrum): 16 µg/mL (≈ 31.4 µM)

SMILES: COc1ccc(CON=C2CCN(CC(O)(Cn3cncn3)c3ccc(F)cc3F)CC2)cc1 (racemic)
- MIC80 (Candida albicans): 1 µg/mL (≈ 2.12 µM)
- MIC80 (Cryptococcus neoformans): 4 µg/mL (≈ 8.48 µM)
- MIC80 (Aspergillus fumigatus): 64 µg/mL (≈ 136 µM)
- MIC80 (Candida tropicalis): 4 µg/mL (≈ 8.48 µM)
- MIC80 (Pichia kudriavzevii): 4 µg/mL (≈ 8.48 µM)
- MIC80 (Candida parapsilosis): 4 µg/mL (≈ 8.48 µM)
- MIC80 (Trichophyton rubrum): 4 µg/mL (≈ 8.48 µM)

SMILES: N#Cc1ccc(CON=C2CCN(CC(O)(Cn3cncn3)c3ccc(F)cc3F)CC2)cc1 (racemic)
- MIC80 (Candida albicans): 0.0625 µg/mL (≈ 0.134 µM)
- MIC80 (Cryptococcus neoformans): 0.016 µg/mL (≈ 0.0343 µM)
- MIC80 (Aspergillus fumigatus): 1 µg/mL (≈ 2.14 µM)
- MIC80 (Candida tropicalis): 0.0625 µg/mL (≈ 0.134 µM)
- MIC80 (Pichia kudriavzevii): 0.25 µg/mL (≈ 0.536 µM)
- MIC80 (Candida parapsilosis): 0.0625 µg/mL (≈ 0.134 µM)
- MIC80 (Trichophyton rubrum): 0.0625 µg/mL (≈ 0.134 µM)

SMILES: OC(CN1CCC(=NOCc2cccc(C(F)(F)F)c2)CC1)(Cn1cncn1)c1ccc(F)cc1F (racemic)
- MIC80 (Candida albicans): 16 µg/mL (≈ 31.4 µM)
- MIC80 (Cryptococcus neoformans): 16 µg/mL (≈ 31.4 µM)
- MIC80 (Aspergillus fumigatus): 64 µg/mL (≈ 126 µM)
- MIC80 (Candida tropicalis): 64 µg/mL (≈ 126 µM)
- MIC80 (Pichia kudriavzevii): 64 µg/mL (≈ 126 µM)
- MIC80 (Candida parapsilosis): 64 µg/mL (≈ 126 µM)
- MIC80 (Trichophyton rubrum): 16 µg/mL (≈ 31.4 µM)

SMILES: CCc1ccc(CON=C2CCN(CC(O)(Cn3cncn3)c3ccc(F)cc3F)CC2)cc1 (racemic)
- MIC80 (Candida albicans): 16 µg/mL (≈ 34.1 µM)
- MIC80 (Cryptococcus neoformans): 16 µg/mL (≈ 34.1 µM)
- MIC80 (Aspergillus fumigatus): 64 µg/mL (≈ 136 µM)
- MIC80 (Candida tropicalis): 64 µg/mL (≈ 136 µM)
- MIC80 (Pichia kudriavzevii): 64 µg/mL (≈ 136 µM)
- MIC80 (Candida parapsilosis): 64 µg/mL (≈ 136 µM)
- MIC80 (Trichophyton rubrum): 16 µg/mL (≈ 34.1 µM)

SMILES: CCCc1ccc(CON=C2CCN(CC(O)(Cn3cncn3)c3ccc(F)cc3F)CC2)cc1 (racemic)
- MIC80 (Candida albicans): 16 µg/mL (≈ 33.1 µM)
- MIC80 (Cryptococcus neoformans): 16 µg/mL (≈ 33.1 µM)
- MIC80 (Aspergillus fumigatus): 64 µg/mL (≈ 132 µM)
- MIC80 (Candida tropicalis): 64 µg/mL (≈ 132 µM)
- MIC80 (Pichia kudriavzevii): 64 µg/mL (≈ 132 µM)
- MIC80 (Candida parapsilosis): 64 µg/mL (≈ 132 µM)
- MIC80 (Trichophyton rubrum): 4 µg/mL (≈ 8.27 µM)

SMILES: Cc1ccccc1CON=C1CCN(CC(O)(Cn2cncn2)c2ccc(F)cc2F)CC1 (racemic)
- MIC80 (Candida albicans): 16 µg/mL (≈ 35.1 µM)
- MIC80 (Cryptococcus neoformans): 64 µg/mL (≈ 141 µM)
- MIC80 (Aspergillus fumigatus): 64 µg/mL (≈ 141 µM)
- MIC80 (Candida tropicalis): 64 µg/mL (≈ 141 µM)
- MIC80 (Pichia kudriavzevii): 64 µg/mL (≈ 141 µM)
- MIC80 (Candida parapsilosis): 64 µg/mL (≈ 141 µM)
- MIC80 (Trichophyton rubrum): 16 µg/mL (≈ 35.1 µM)

SMILES: OC(CN1CCC(=NOCc2ccc(Cl)c(Cl)c2)CC1)(Cn1cncn1)c1ccc(F)cc1F (racemic)
- MIC80 (Candida albicans): 0.25 µg/mL (≈ 0.49 µM)
- MIC80 (Cryptococcus neoformans): 0.0625 µg/mL (≈ 0.122 µM)
- MIC80 (Aspergillus fumigatus): 1 µg/mL (≈ 1.96 µM)
- MIC80 (Candida tropicalis): 0.25 µg/mL (≈ 0.49 µM)
- MIC80 (Pichia kudriavzevii): 0.25 µg/mL (≈ 0.49 µM)
- MIC80 (Candida parapsilosis): 0.25 µg/mL (≈ 0.49 µM)
- MIC80 (Trichophyton rubrum): 0.0625 µg/mL (≈ 0.122 µM)

SMILES: COc1cccc(CON=C2CCN(CC(O)(Cn3cncn3)c3ccc(F)cc3F)CC2)c1 (racemic)
- MIC80 (Candida albicans): 16 µg/mL (≈ 33.9 µM)
- MIC80 (Cryptococcus neoformans): 16 µg/mL (≈ 33.9 µM)
- MIC80 (Aspergillus fumigatus): 64 µg/mL (≈ 136 µM)
- MIC80 (Candida tropicalis): 64 µg/mL (≈ 136 µM)
- MIC80 (Pichia kudriavzevii): 64 µg/mL (≈ 136 µM)
- MIC80 (Candida parapsilosis): 64 µg/mL (≈ 136 µM)
- MIC80 (Trichophyton rubrum): 16 µg/mL (≈ 33.9 µM)

SMILES: Cc1cccc(CON=C2CCN(CC(O)(Cn3cncn3)c3ccc(F)cc3F)CC2)c1 (racemic)
- MIC80 (Candida albicans): 16 µg/mL (≈ 35.1 µM)
- MIC80 (Cryptococcus neoformans): 16 µg/mL (≈ 35.1 µM)
- MIC80 (Aspergillus fumigatus): 64 µg/mL (≈ 141 µM)
- MIC80 (Candida tropicalis): 64 µg/mL (≈ 141 µM)
- MIC80 (Pichia kudriavzevii): 64 µg/mL (≈ 141 µM)
- MIC80 (Candida parapsilosis): 64 µg/mL (≈ 141 µM)
- MIC80 (Trichophyton rubrum): 16 µg/mL (≈ 35.1 µM)

SMILES: O=[N+]([O-])c1ccc(CON=C2CCN(CC(O)(Cn3cncn3)c3ccc(F)cc3F)CC2)cc1 (racemic)
- MIC80 (Candida albicans): 0.016 µg/mL (≈ 0.0329 µM)
- MIC80 (Cryptococcus neoformans): 0.016 µg/mL (≈ 0.0329 µM)
- MIC80 (Aspergillus fumigatus): 1 µg/mL (≈ 2.06 µM)
- MIC80 (Candida tropicalis): 0.004 µg/mL (≈ 0.00822 µM)
- MIC80 (Pichia kudriavzevii): 0.25 µg/mL (≈ 0.514 µM)
- MIC80 (Candida parapsilosis): 0.004 µg/mL (≈ 0.00822 µM)
- MIC80 (Trichophyton rubrum): 0.0625 µg/mL (≈ 0.128 µM)

SMILES: OC(CN1CCC(=NOCc2ccc3ccccc3c2)CC1)(Cn1cncn1)c1ccc(F)cc1F (racemic)
- MIC80 (Candida albicans): 0.016 µg/mL (≈ 0.0326 µM)
- MIC80 (Cryptococcus neoformans): 0.016 µg/mL (≈ 0.0326 µM)
- MIC80 (Aspergillus fumigatus): 1 µg/mL (≈ 2.03 µM)
- MIC80 (Candida tropicalis): 0.016 µg/mL (≈ 0.0326 µM)
- MIC80 (Pichia kudriavzevii): 0.25 µg/mL (≈ 0.509 µM)
- MIC80 (Candida parapsilosis): 0.016 µg/mL (≈ 0.0326 µM)
- MIC80 (Trichophyton rubrum): 0.0625 µg/mL (≈ 0.127 µM)

SMILES: O=[N+]([O-])c1cccc(CON=C2CCN(CC(O)(Cn3cncn3)c3ccc(F)cc3F)CC2)c1 (racemic)
- MIC80 (Candida albicans): 1 µg/mL (≈ 2.06 µM)
- MIC80 (Cryptococcus neoformans): 0.0625 µg/mL (≈ 0.128 µM)
- MIC80 (Aspergillus fumigatus): 1 µg/mL (≈ 2.06 µM)
- MIC80 (Candida tropicalis): 1 µg/mL (≈ 2.06 µM)
- MIC80 (Pichia kudriavzevii): 1 µg/mL (≈ 2.06 µM)
- MIC80 (Candida parapsilosis): 0.0625 µg/mL (≈ 0.128 µM)
- MIC80 (Trichophyton rubrum): 0.25 µg/mL (≈ 0.514 µM)

SMILES: OC(Cn1cncn1)(Cn1cncn1)c1ccc(F)cc1F [FLUCONAZOLE]
- MIC80 (Candida albicans): 0.25 µg/mL (≈ 0.816 µM)
- MIC80 (Cryptococcus neoformans): 0.0625 µg/mL (≈ 0.204 µM)
- MIC80 (Aspergillus fumigatus): > 64 µg/mL
- MIC80 (Candida tropicalis): 1 µg/mL (≈ 3.27 µM)
- MIC80 (Pichia kudriavzevii): 1 µg/mL (≈ 3.27 µM)
- MIC80 (Candida parapsilosis): 0.25 µg/mL (≈ 0.816 µM)
- MIC80 (Trichophyton rubrum): 1 µg/mL (≈ 3.27 µM)

SMILES: CCC(C)n1ncn(-c2ccc(N3CCN(c4ccc(OCC5COC(Cn6cncn6)(c6ccc(Cl)cc6Cl)O5)cc4)CC3)cc2)c1=O (configuration not stated) [ITRACONAZOLE]
- MIC80 (Candida albicans): 0.016 µg/mL (≈ 0.0227 µM)
- MIC80 (Cryptococcus neoformans): 0.004 µg/mL (≈ 0.00567 µM)
- MIC80 (Aspergillus fumigatus): 1 µg/mL (≈ 1.42 µM)
- MIC80 (Candida tropicalis): 0.0625 µg/mL (≈ 0.0886 µM)
- MIC80 (Pichia kudriavzevii): 0.25 µg/mL (≈ 0.354 µM)
- MIC80 (Candida parapsilosis): 0.0625 µg/mL (≈ 0.0886 µM)
- MIC80 (Trichophyton rubrum): 0.004 µg/mL (≈ 0.00567 µM)

SMILES: C[C@@H](c1ncncc1F)[C@](O)(Cn1cncn1)c1ccc(F)cc1F [VORICONAZOLE]
- MIC80 (Candida albicans): 0.004 µg/mL (≈ 0.0115 µM)
- MIC80 (Cryptococcus neoformans): 0.004 µg/mL (≈ 0.0115 µM)
- MIC80 (Aspergillus fumigatus): 0.0625 µg/mL (≈ 0.179 µM)
- MIC80 (Candida tropicalis): 0.004 µg/mL (≈ 0.0115 µM)
- MIC80 (Pichia kudriavzevii): 0.016 µg/mL (≈ 0.0458 µM)
- MIC80 (Candida parapsilosis): 0.004 µg/mL (≈ 0.0115 µM)
- MIC80 (Trichophyton rubrum): 0.004 µg/mL (≈ 0.0115 µM)
